From ChEMBL document CHEMBL4507256 (2021)

Tests used:
[1] = biological target: cAMP-dependent protein kinase catalytic subunit beta (Homo sapiens) (UniProt P22694); details: Compound concentration 1000.0 nM
[2] = biological target: 1-phosphatidylinositol 3-phosphate 5-kinase (Homo sapiens) (UniProt Q9Y2I7); details: Compound concentration 1000.0 nM
[3] = biological target: Serine/threonine-protein kinase Chk2 (Homo sapiens) (UniProt O96017); details: Compound concentration 1000.0 nM
[4] = biological target: Tyrosine-protein kinase ZAP-70 (Homo sapiens) (UniProt P43403); details: Compound concentration 1000.0 nM
Sequence of Tyrosine-protein kinase ZAP-70 (Homo sapiens) (P43403 whole entry): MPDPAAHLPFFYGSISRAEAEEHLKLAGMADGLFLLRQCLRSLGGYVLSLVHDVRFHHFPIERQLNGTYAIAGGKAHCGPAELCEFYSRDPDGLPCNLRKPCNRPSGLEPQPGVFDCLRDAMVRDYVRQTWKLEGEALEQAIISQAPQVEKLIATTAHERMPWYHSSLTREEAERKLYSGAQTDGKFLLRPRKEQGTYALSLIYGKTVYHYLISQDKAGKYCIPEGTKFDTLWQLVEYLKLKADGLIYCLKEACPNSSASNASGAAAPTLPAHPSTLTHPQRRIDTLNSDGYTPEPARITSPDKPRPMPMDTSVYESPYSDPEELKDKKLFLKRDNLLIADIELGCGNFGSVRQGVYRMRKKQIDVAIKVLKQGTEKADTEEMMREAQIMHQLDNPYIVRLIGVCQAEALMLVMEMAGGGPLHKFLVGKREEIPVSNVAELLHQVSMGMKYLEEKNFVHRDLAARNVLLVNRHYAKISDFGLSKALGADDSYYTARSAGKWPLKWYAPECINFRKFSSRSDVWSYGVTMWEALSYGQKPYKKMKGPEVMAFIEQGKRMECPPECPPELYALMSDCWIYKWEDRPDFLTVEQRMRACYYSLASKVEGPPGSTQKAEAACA

[5] = biological target: MAP/microtubule affinity-regulating kinase 3 (Homo sapiens) (UniProt P27448); details: Compound concentration 1000.0 nM
Sequence of MAP/microtubule affinity-regulating kinase 3 (Homo sapiens) (P27448 whole entry, looked up): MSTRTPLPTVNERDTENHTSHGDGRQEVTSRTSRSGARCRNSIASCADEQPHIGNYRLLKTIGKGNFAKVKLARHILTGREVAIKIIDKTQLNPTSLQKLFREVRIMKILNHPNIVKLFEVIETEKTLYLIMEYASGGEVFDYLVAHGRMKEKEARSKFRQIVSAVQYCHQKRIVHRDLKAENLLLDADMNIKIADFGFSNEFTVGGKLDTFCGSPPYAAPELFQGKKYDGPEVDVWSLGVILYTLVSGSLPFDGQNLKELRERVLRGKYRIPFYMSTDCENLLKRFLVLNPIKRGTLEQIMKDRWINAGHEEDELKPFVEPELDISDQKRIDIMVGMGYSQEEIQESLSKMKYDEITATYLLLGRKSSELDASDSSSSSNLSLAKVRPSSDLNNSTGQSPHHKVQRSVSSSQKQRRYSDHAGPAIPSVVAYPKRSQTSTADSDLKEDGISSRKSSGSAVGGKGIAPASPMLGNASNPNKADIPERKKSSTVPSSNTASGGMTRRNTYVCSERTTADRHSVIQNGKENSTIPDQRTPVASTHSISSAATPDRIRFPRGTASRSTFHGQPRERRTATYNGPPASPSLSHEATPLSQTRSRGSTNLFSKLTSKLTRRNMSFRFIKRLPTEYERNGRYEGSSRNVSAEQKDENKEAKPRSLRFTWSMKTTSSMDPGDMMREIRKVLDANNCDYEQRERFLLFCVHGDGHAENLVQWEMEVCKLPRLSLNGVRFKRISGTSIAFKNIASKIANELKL

[6] = biological target: Ephrin type-A receptor 1 (Homo sapiens) (UniProt P21709); details: Compound concentration 1000.0 nM
[7] = biological target: Serine/threonine-protein kinase MRCK alpha (Homo sapiens) (UniProt Q5VT25); details: Compound concentration 1000.0 nM
[8] = biological target: High affinity nerve growth factor receptor (Homo sapiens) (UniProt P04629); details: Compound concentration 1000.0 nM
[9] = biological target: Phosphatidylinositol 4-kinase beta (Homo sapiens) (UniProt Q9UBF8); details: Compound concentration 1000.0 nM
[10] = biological target: Leukocyte tyrosine kinase receptor (Homo sapiens) (UniProt P29376); details: Compound concentration 1000.0 nM
[11] = biological target: Serine/threonine-protein kinase Sgk2 (Homo sapiens) (UniProt Q9HBY8); details: Compound concentration 1000.0 nM
[12] = biological target: Alpha-1A adrenergic receptor (Homo sapiens) (UniProt P35348); details: Compound concentration 10.0 uM
Sequence of Alpha-1A adrenergic receptor (Homo sapiens) (P35348 whole entry): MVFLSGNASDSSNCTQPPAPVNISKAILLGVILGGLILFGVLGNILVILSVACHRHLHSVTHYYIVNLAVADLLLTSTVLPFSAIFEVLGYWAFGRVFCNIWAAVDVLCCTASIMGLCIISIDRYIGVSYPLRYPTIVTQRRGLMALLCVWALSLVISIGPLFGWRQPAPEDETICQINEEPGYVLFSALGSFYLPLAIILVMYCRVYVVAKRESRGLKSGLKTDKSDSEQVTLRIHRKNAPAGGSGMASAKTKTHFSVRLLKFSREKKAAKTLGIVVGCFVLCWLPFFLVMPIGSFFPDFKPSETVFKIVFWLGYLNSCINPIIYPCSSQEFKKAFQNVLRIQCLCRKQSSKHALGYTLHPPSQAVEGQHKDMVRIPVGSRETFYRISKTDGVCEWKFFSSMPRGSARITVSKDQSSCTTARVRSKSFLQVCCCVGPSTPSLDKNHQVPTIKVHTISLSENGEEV

[13] = biological target: Sigma intracellular receptor 2 (Homo sapiens) (UniProt Q5BJF2); details: Compound concentration 10.0 uM
[14] = biological target: cGMP-dependent protein kinase 1 (Homo sapiens) (UniProt Q13976); details: Compound concentration 1000.0 nM
[15] = biological target: Non-receptor tyrosine-protein kinase TYK2 (Homo sapiens) (UniProt P29597); details: Compound concentration 1000.0 nM
[16] = biological target: Testis-specific serine/threonine-protein kinase 1 (Homo sapiens) (UniProt Q9BXA7); details: Compound concentration 1000.0 nM
Sequence of Testis-specific serine/threonine-protein kinase 1 (Homo sapiens) (Q9BXA7 whole entry): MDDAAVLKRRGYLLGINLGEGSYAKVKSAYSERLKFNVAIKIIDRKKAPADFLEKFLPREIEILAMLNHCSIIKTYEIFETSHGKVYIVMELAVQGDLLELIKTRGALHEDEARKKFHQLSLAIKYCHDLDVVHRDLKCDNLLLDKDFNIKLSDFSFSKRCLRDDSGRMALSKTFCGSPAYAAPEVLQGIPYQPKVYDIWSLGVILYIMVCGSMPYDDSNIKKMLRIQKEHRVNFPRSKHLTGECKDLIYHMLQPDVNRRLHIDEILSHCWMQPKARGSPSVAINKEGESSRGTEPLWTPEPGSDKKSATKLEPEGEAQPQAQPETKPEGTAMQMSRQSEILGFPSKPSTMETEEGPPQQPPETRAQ

[17] = biological target: Wee1-like protein kinase (Homo sapiens) (UniProt P30291); details: Compound concentration 1000.0 nM
Sequence of Wee1-like protein kinase (Homo sapiens) (P30291 whole entry, looked up): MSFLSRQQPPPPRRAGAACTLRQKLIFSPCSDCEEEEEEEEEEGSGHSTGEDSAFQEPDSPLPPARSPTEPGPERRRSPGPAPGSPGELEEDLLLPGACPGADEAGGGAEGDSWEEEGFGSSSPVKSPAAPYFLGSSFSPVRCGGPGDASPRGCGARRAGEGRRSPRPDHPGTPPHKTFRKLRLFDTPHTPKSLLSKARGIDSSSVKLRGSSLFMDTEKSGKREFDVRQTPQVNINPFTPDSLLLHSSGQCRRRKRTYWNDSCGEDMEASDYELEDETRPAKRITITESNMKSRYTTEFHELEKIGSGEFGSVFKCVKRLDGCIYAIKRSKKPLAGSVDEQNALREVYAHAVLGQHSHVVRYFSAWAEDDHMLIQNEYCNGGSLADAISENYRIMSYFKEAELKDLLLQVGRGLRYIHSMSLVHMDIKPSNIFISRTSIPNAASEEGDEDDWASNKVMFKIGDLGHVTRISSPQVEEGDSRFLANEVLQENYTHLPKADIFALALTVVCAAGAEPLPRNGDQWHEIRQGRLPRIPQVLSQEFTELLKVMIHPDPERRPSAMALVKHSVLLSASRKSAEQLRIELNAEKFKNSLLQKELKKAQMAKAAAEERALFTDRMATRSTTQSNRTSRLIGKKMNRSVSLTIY

[18] = biological target: Aurora kinase C (Homo sapiens) (UniProt Q9UQB9); details: Compound concentration 1000.0 nM
[19] = biological target: Ephrin type-A receptor 5 (Homo sapiens) (UniProt P54756); details: Compound concentration 1000.0 nM
[20] = biological target: T1, Muscarinic acetylcholine receptor M2 (Homo sapiens) (UniProt P08172); details: Compound concentration 10.0 uM
T1 sequence (whole entry): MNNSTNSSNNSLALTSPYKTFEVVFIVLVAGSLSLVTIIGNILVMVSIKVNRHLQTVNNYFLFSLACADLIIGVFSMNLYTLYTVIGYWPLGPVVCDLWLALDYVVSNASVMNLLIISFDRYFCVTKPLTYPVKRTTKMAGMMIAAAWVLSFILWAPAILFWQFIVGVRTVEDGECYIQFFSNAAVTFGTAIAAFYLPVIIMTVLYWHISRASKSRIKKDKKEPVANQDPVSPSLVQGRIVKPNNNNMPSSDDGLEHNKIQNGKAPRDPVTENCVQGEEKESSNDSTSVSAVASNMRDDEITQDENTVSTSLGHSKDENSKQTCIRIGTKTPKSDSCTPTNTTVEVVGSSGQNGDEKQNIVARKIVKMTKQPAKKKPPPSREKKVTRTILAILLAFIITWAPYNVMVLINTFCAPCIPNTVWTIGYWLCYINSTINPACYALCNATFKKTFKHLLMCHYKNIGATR

[21] = biological target: Serine/threonine-protein kinase LATS2 (Homo sapiens) (UniProt Q9NRM7); details: Compound concentration 1000.0 nM
[22] = biological target: Discoidin domain-containing receptor 2 (Homo sapiens) (UniProt Q16832); details: Compound concentration 1000.0 nM
[23] = biological target: Serine/threonine-protein kinase MRCK gamma (Homo sapiens) (UniProt Q6DT37); details: Compound concentration 1000.0 nM
[24] = biological target: Tyrosine-protein kinase SYK (Homo sapiens) (UniProt P43405); details: Compound concentration 1000.0 nM
[25] = biological target: Calcium/calmodulin-dependent protein kinase type II subunit gamma (Homo sapiens) (UniProt Q13555); details: Compound concentration 1000.0 nM
Sequence of Calcium/calmodulin-dependent protein kinase type II subunit gamma (Homo sapiens) (Q13555 whole entry): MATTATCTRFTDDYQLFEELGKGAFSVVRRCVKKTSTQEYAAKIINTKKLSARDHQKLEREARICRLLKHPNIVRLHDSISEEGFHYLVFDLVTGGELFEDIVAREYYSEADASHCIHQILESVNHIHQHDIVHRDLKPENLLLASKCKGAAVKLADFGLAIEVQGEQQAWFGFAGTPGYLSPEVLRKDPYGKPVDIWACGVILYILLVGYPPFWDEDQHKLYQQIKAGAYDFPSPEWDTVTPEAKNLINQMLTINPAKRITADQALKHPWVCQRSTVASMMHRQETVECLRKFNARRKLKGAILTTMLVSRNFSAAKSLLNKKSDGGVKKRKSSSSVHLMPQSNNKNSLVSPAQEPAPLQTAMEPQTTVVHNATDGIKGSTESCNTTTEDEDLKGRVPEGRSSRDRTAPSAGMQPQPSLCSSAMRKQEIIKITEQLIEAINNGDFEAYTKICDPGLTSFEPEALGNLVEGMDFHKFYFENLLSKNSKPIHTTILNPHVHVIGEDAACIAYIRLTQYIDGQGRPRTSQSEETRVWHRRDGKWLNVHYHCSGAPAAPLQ

[26] = biological target: Mitogen-activated protein kinase kinase kinase 3 (Homo sapiens) (UniProt Q99759); details: Compound concentration 1000.0 nM
[27] = biological target: Serine/threonine-protein kinase 3 (Homo sapiens) (UniProt Q13188); details: Compound concentration 1000.0 nM
[28] = biological target: Inhibitor of nuclear factor kappa-B kinase subunit alpha (Homo sapiens) (UniProt O15111); details: Compound concentration 1000.0 nM
[29] = biological target: Ribosomal protein S6 kinase alpha-6 (Homo sapiens) (UniProt Q9UK32); details: Compound concentration 1000.0 nM
[30] = biological target: Ephrin type-A receptor 6 (Homo sapiens) (UniProt Q9UF33); details: Compound concentration 1000.0 nM
Sequence of Ephrin type-A receptor 6 (Homo sapiens) (Q9UF33 whole entry): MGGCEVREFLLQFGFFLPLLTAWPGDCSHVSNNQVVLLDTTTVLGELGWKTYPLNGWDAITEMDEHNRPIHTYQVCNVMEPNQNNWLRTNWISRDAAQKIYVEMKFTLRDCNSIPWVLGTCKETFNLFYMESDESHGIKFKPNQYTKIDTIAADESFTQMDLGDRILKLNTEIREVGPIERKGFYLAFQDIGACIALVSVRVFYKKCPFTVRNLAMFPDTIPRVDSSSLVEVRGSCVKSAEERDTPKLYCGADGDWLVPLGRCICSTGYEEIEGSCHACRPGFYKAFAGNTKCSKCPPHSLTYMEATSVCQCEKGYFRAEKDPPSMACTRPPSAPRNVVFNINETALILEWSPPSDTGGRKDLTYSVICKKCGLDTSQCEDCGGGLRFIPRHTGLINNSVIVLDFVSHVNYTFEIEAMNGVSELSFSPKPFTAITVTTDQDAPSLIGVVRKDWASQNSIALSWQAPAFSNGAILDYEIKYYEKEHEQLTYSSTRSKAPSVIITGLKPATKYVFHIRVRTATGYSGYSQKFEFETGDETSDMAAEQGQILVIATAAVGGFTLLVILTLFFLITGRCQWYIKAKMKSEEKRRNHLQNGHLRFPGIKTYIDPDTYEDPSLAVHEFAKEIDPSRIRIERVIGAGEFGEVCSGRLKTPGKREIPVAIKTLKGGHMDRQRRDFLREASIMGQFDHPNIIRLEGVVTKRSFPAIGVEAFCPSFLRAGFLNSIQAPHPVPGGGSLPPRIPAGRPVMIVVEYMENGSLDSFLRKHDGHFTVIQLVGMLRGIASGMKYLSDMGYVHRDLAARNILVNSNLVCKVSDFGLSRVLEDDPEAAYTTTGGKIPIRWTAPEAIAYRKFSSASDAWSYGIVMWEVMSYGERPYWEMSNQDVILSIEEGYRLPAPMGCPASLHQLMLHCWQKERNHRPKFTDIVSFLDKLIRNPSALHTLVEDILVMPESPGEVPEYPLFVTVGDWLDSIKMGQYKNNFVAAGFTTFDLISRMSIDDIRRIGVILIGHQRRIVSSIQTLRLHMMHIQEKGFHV

[31] = biological target: Citron Rho-interacting kinase (Homo sapiens) (UniProt O14578); details: Compound concentration 1000.0 nM
[32] = biological target: Mitogen-activated protein kinase 15 (Homo sapiens) (UniProt Q8TD08); details: Compound concentration 1000.0 nM
Sequence of Mitogen-activated protein kinase 15 (Homo sapiens) (Q8TD08 whole entry): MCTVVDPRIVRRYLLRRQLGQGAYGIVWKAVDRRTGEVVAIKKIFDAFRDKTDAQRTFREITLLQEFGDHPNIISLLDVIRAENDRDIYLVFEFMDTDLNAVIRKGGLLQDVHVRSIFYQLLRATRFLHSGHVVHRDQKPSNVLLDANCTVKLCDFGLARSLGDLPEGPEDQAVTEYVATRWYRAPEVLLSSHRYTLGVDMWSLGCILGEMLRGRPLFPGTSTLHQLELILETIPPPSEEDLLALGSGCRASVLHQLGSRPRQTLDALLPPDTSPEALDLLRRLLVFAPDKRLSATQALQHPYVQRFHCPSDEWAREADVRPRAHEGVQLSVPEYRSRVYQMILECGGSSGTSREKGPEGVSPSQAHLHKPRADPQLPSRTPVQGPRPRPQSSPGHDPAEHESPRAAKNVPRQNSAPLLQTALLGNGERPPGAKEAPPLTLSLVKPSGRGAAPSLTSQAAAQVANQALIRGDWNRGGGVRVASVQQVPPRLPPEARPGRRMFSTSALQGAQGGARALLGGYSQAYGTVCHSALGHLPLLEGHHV

[33] = biological target: Homeodomain-interacting protein kinase 4 (Homo sapiens) (UniProt Q8NE63); details: Compound concentration 1000.0 nM
[34] = biological target: Serine/threonine-protein kinase Nek10 (Homo sapiens) (UniProt Q6ZWH5); details: Compound concentration 1000.0 nM
[35] = biological target: Serine/threonine-protein kinase PLK4 (Homo sapiens) (UniProt O00444); details: Compound concentration 1000.0 nM
[36] = system: Epidermal growth factor receptor (Homo sapiens), P00533 [L858R,T790M]; details: Compound concentration 1000.0 nM
[37] = biological target: cGMP-dependent protein kinase 2 (Homo sapiens) (UniProt Q13237); details: Compound concentration 1000.0 nM
[38] = biological target: Mitogen-activated protein kinase 11 (Homo sapiens) (UniProt Q15759); details: Compound concentration 1000.0 nM
[39] = biological target: 5'-AMP-activated protein kinase catalytic subunit alpha-2 (Homo sapiens) (UniProt P54646); details: Compound concentration 1000.0 nM

Structure (SMILES) | residual activity [1] [%] | residual activity [2] [%] | residual activity [3] [%] | residual activity [4] [%] | residual activity [5] [%] | residual activity [6] [%] | residual activity [7] [%] | residual activity [8] [%] | residual activity [9] [%] | residual activity [10] [%] | residual activity [11] [%] | inhibition [12] [%] | inhibition [13] [%] | residual activity [14] [%] | residual activity [15] [%] | residual activity [16] [%] | residual activity [17] [%] | residual activity [18] [%] | residual activity [19] [%] | inhibition [20] [%] | also measured
CCC(=N\O)/C(C)=C/c1ccc(F)c(C)c1 [A-226] | 100 | 100 | 90 | 38 | 100 | 83 | 100 | 100 | 100 | 61 | 100 | -8.35 | 33.4 | 100 | 100 | 90 | 94 | 100 | 79 | 14.3 | residual activity [21]: 75%; residual activity [22]: 100%; residual activity [23]: 85%; residual activity [24]: 76%; residual activity [25]: 90%; residual activity [26]: 100%; residual activity [27]: 100%; residual activity [28]: 95%; residual activity [29]: 98%; residual activity [30]: 100%; residual activity [31]: 70%; residual activity [32]: 100%; residual activity [33]: 91%; residual activity [34]: 100%; residual activity [35]: 100%; residual activity [36]: 100%; residual activity [37]: 97%; residual activity [38]: 82%; residual activity [39]: 100%
CCC(=N\O)/C(C)=C/c1ccc(F)cc1 [A-079] | 89 | 92 | 85 | 96 | 86 | 82 | 100 | 83 | 50 | 87 | 78 | -9.69 | 22.6 | 100 | 73 | 82 | 97 | 80 | 64 | 9.31 | residual activity [21]: 100%; residual activity [22]: 91%; residual activity [23]: 73%; residual activity [24]: 100%; residual activity [25]: 100%; residual activity [26]: 86%; residual activity [27]: 100%; residual activity [28]: 67%; residual activity [29]: 94%; residual activity [30]: 67%; residual activity [31]: 70%; residual activity [32]: 95%; residual activity [33]: 79%; residual activity [34]: 95%; residual activity [35]: 75%; residual activity [36]: 100%; residual activity [37]: 79%; residual activity [38]: 82%; residual activity [39]: 88%
